Our source for the IC50 values is patent publication US20230059136A1, “THE COMPOUNDS AND COMPOSITIONS FOR TREATING CONDITIONS ASSOCIATED WITH NLRP ACTIVITY” (Novartis AG, priority 2018, published 2023).

Where only a bound is given, the exact number is not on record here.

In the first test the test system is IL-1β production in PMA-differentiated THP-1 cells. Description: IL-1β production in PMA-differentiated THP-1 cells stimulated with gramicidin (hTHP-1 assay containing 2% fetal bovine serum). The settings on record: Homo sapiens, THP-1, Table B1; 2% fetal bovine serum; cells printed as numeric bound; read-out: hTHP-1 IC50 (Average IC50 of compounds in hTHP-1 assay). The class given is cell-based, human. The procedure, abridged: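 IL-1β release was read by HTRF on supernatants of 50,000 PMA-primed (20 ng/ml, 16-18 h) THP-1 cells/well in 2% FBS medium. Cells saw compound for 1 h (11-point titration from 100 μM, 0.37% DMSO) before a 2 h gramicidin (5 μM) challenge.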
For the compound `CC(C)c1cc(F)cc(C(C)C)c1C(C)C(=O)N=S(N)(=O)c1cnc(C(C)(C)O)s1` (stereo not drawn) [Example 96, N-(amino(2-(2-hydroxypropan-2-yl)thiazol-5-yl)(oxo)-λ^6-sulfaneylidene)-2-(4-fluoro-2,6-diisopropylphenyl)propanamide], the IC50 (usually the midpoint of a concentration-inhibition curve) was over 30000 nM. On the same count and under the same terms, the result for `CC(C)(O)c1ncc(S(N)(=O)=NC(=O)Cc2c3c(cc4c2CC4)CCC3)s1` [Example 224, (S)- and (R)—N-(amino(2-(2-hydroxypropan-2-yl)thiazol-5-yl)(oxo)-λ^6-sulfaneylidene)-2-(2,4,5,6-tetrahydro-1H-cyclobuta[f]inden-3-yl)acetamide] reads over 30000 nM.

The test is the same for the next values; noted with them: Homo sapiens, THP-1, Table B1; 2% fetal bovine serum; class symbols; read-out: hTHP-1 IC50 (Average IC50 of compounds in hTHP-1 assay).
Take `CC(C)c1cc(-c2ccc3c(c2)COCC3)cc(C(C)C)c1CC(=O)N=S(N)(=O)c1cnc(C(C)(C)O)s1` (stereo not drawn) [Example 97, N-(amino(2-(2-hydroxypropan-2-yl)thiazol-5-yl)(oxo)-λ^6-sulfaneylidene)-2-(4-(isochroman-7-yl)-2,6-diisopropylphenyl)acetamide]: the IC50 fell in the range of 200 to 1000 nM.

Regarding `CC(C)(O)c1ncc(S(N)(=O)=NC(=O)Cc2c(C3CC3)cc(F)cc2C(F)(F)F)s1` (stereo not drawn) [Example 98, N-(amino(2-(2-hydroxypropan-2-yl)thiazol-5-yl)(oxo)-λ^6-sulfaneylidene)-2-(2-cyclopropyl-4-fluoro-6-(trifluoromethyl)phenyl)acetamide], the IC50 was in the range of 5000 to 30000 nM. Still for that read-out and setting: the result for `CC(C)c1nc(-c2cccc(C(F)(F)F)c2)c(F)c(C(C)C)c1CC(=O)N=S(N)(=O)c1cnc(C(C)(C)O)s1` (stereo not drawn) [Example 100, N-(amino(2-(2-hydroxypropan-2-yl)thiazol-5-yl)(oxo)-λ^6-sulfaneylidene)-2-(5-fluoro-2,4-diisopropyl-6-(3-(trifluoromethyl)phenyl)pyridin-3-yl)acetamide] reads 200 to 1000 nM; that for `CC(C)c1ccc(F)c(C(C)C)c1CC(=O)N=S(N)(=O)c1cc(C(C)(C)O)cs1` (stereo not drawn) [Example 106, N-(ainino(4-(2-hydroxypropan-2-yl)thiophen-2-yl)(oxo)-λ^6-sulfaneylidene)-2-(3-fluoro-2,6-diisopropylphenyl)acetamide], 40 to 200 nM. On the same count and under the same terms, the result for `COCc1cc(C(C)C)c(CC(=O)N=S(N)(=O)c2ncc(C(C)(C)O)s2)c(C(C)C)c1` (stereo not drawn) [Example 111, N-(amino(5-(2-hydroxypropan-2-yl)thiazol-2-yl)(oxo)-λ^6-sulfaneylidene)-2-(2,6-diisopropyl-4-(methoxymethyl)phenyl) acetamide] reads 40 to 200 nM; that for `CC(C)c1cc(-c2ccc3c(c2)OC(F)(F)O3)cc(C(C)C)c1CC(=O)N=S(N)(=O)c1ncc(C(C)(C)O)s1` (stereo not drawn) [Example 117, N-(amino(5-(2-hydroxypropan-2-yl)thiazol-2-yl)(oxo)-λ^6-sulfaneylidene)-2-(4-(2,2-difluorobenzo[d][1,3]dioxol-5-yl)-2,6-diisopropylphenyl) acetamide], 40 to 200 nM; that for `CC(C)c1ccc(C#N)c(C(C)C)c1CC(=O)N=S(N)(=O)c1nc(C(C)(C)O)cs1` (stereo not drawn) [Example 120, N-(amino(4-(2-hydroxypropan-2-yl)thiazol-2-yl)(oxo)-λ^6-sulfaneylidene)-2-(3-cyano-2,6-diisopropylphenyl)acetamide], 200 to 1000 nM. The same measure, in the same setting: the result for `Cc1ccc(-c2cc(C(C)C)c(CC(=O)N=S(N)(=O)c3ncc(C(C)(C)O)s3)c(C(C)C)c2)cc1C` (stereo not drawn) [Example 121, N-(amino(5-(2-hydroxypropan-2-yl)thiazol-2-yl)(oxo)-λ^6-sulfaneylidene)-2-(3,5-diisopropyl-3′,4′-dimethyl-[1,1′-biphenyl]-4-yl)acetamide] reads 200 to 1000 nM; that for `CC(C)c1cc(-c2ccc(Cl)c(Cl)c2)cc(C(C)C)c1CC(=O)N=S(N)(=O)c1ncc(C(C)(C)O)s1` (stereo not drawn) [Example 122, N-(amino(5-(2-hydroxypropan-2-yl)thiazol-2-yl)(oxo)-λ^6-sulfaneylidene)-2-(3′,4′-dichloro-3,5-diisopropyl-[1,1′-biphenyl]-4-yl)acetamide], 200 to 1000 nM; that for `CC(C)c1ccc(F)c(C(C)C)c1CC(=O)N=S(N)(=O)c1ccc(C(C)(C)O)s1` (stereo not drawn) [Example 125, N-(amino(5-(2-hydroxypropan-2-yl)thiophen-2-yl)(oxo)-λ^6-sulfaneylidene)-2-(3-fluoro-2,6-diisopropylphenyl)acetamide], 200 to 1000 nM. With `CC(C)c1cc2c(c(C(C)C)c1CC(=O)N=S(N)(=O)c1ccc(CN(C)C)cc1)COC2` (stereo not drawn) [Example 134, N-(amino(4-((dimethylamino)methyl)phenyl)(oxo)-λ^6-sulfaneylidene)-2-(4,6-diisopropyl-1,3-dihydroisobenzofuran-5-yl) acetamide], the IC50 fell in the range of 1000 to 5000 nM. Turning to `CC(C)c1cc(-c2ccc3c(c2)CCOC3)cc(C(C)C)c1CC(=O)N=S(N)(=O)c1sc(C(C)(C)O)nc1CO` (stereo not drawn) [Example 137, N-(amino(4-(hydroxymethyl)-2-(2-hydroxypropan-2-yl)thiazol-5-yl)(oxo)-λ^6-sulfaneylidene)-2-(4-(isochroman-6-yl)-2,6-diisopropylphenyl)acetamide], the IC50 lay in the range of 200 to 1000 nM.

Regarding `CC(C)c1cc(COC2CCCC2)cc(C(C)C)c1CC(=O)N=S(N)(=O)c1cnc(C(C)(C)O)s1` (stereo not drawn) [Example 141, N-(amino(2-(2-hydroxypropan-2-yl)thiazol-5-yl)(oxo)-λ^6-sulfaneylidene)-2-(4-((cyclopentyloxy)methyl)-2,6-diisopropylphenyl)acetamide], the IC50 was in the range of 40 to 200 nM. Turning to `CC(C)c1cc2c(c(C(C)C)c1CC(=O)N=S(N)(=O)c1cnc(C(C)(C)O)s1)CCC2` (stereo not drawn) [Example 142, N-(amino(2-(2-hydroxypropan-2-yl)thiazol-5-yl)(oxo)-λ^6-sulfaneylidene)-2-(4,6-diisopropyl-2,3-dihydro-1H-inden-5-yl)acetamide], the IC50 lay in the range of 1000 to 5000 nM. Same read-out and setting: the result for `CC(C)c1ncc(F)c(C(C)C)c1CC(=O)N=S(N)(=O)c1sc(C(C)(C)O)cc1F` (stereo not drawn) [Example 149, N-(amino(3-fluoro-5-(2-hydroxypropan-2-yl)thiophen-2-yl)(oxo)-λ^6-sulfaneylidene)-2-(5-fluoro-2,4-diisopropylpyridin-3-yl) acetamide] reads 200 to 1000 nM. Regarding `CC(C)c1nc(C(F)(F)F)nc(C(C)C)c1CC(=O)N=S(N)(=O)c1cnc(C(C)(C)O)s1` (stereo not drawn) [Example 153, N-(amino(2-(2-hydroxypropan-2-yl)thiazol-5-yl)(oxo)-λ^6-sulfaneylidene)-2-(4,6-diisopropyl-2-(trifluoromethyl)pyrimidin-5-yl)acetamide], the IC50 is 1000 to 5000 nM. Consider `CC(C)c1cnc(F)c(C(C)C)c1CC(=O)N=S(N)(=O)c1cnc(C(C)(C)O)s1` (stereo not drawn) [Example 154, N-(amino(2-(2-hydroxypropan-2-yl)thiazol-5-yl)(oxo)-λ^6-sulfaneylidene)-2-(2-fluoro-3,5-diisopropylpyridin-4-yl)acetamide], for which the IC50 lay within 5000 to 30000 nM.

For the compound `CC(C)(O)c1ncc(S(N)(=O)=NC(=O)Cc2c3c(cc4c2CC4)CCC3)s1` (stereo not drawn) [Example 222, N-(amino(2-(2-hydroxypropan-2-yl)thiazol-5-yl)(oxo)-λ^6-sulfaneylidene)-2-(2,4,5,6-tetrahydro-1H-cyclobuta[f]inden-3-yl)acetamide], the IC50 fell in the range of 1000 to 5000 nM. On the same count and under the same terms, the result for `CC(C)c1ccc(F)c(C(C)C)c1CC(=O)N=S(=O)(NC(=O)Cc1c(C(C)C)ccc(F)c1C(C)C)c1ccc(CN(C)C)nc1` (stereo not drawn) [Example 225, N-(6-((dimethylamino)methyl)-N-(2-(3-fluoro-2,6-diisopropylphenyl)acetyl)pyridine-3-sulfonimidoyl)-2-(3-fluoro-2,6-diisopropylphenyl) acetamide] reads 5000 to 30000 nM; that for `CC(C)c1cc(C#CC2CCCCC2)cc(C(C)C)c1CC(=O)N=S(N)(=O)c1cc(C(C)(C)O)n(-c2ccccc2)n1` (stereo not drawn) [Example 226, N-(amino(5-(2-hydroxypropan-2-yl)-1-phenyl-1H-pyrazol-3-yl)(oxo)-λ^6-sulfaneylidene)-2-(4-(cyclohexylethynyl)-2,6-diisopropylphenyl)acetamide], 1000 to 5000 nM.

Turning to `CC(C)c1cc(C(=O)CC2CCCCC2)cc(C(C)C)c1CC(=O)N=S(N)(=O)c1cc(C(C)(C)O)n(-c2ccccc2)n1` (stereo not drawn) [Example 227], the IC50 was 1000 to 5000 nM. On the same count and under the same terms, the result for `CC(C)c1cc(CCC2CCCCC2)cc(C(C)C)c1CC(=O)N=S(N)(=O)c1cc(C(C)(C)O)n(-c2ccccc2)n1` (stereo not drawn) [Example 228, N-(amino(5-(2-hydroxypropan-2-yl)-1-phenyl-1H-pyrazol-3-yl)(oxo)-λ^6-sulfaneylidene)-2-(4-(2-cyclohexylethyl)-2,6-diisopropylphenyl)acetamide] reads 5000 to 30000 nM.

Staying with this test, now noted: Table B1; 2% fetal bovine serum; class symbols; read-out: hTHP-1 IC50 (Average IC50 of compounds in hTHP-1 assay).
On to `COCc1cc(C(C)C)c(CC(=O)N=S(N)(=O)c2sc(C(C)(C)O)nc2CO)c(C(C)C)c1` (stereo not drawn) [Example 24, 2-(2,6-diisopropyl-4-(methoxymethyl)phenyl)-N-(4-(hydroxymethyl)-2-(2-hydroxypropan-2-yl)thiazole-5-sulfonimidoyl)acetamide], for which the IC50 fell in the range of 200 to 1000 nM. Same read-out and setting: the result for `CCc1cc(OC(F)F)cc(C(C)C)c1CC(=O)N=S(N)(=O)c1sc(C(C)(C)O)cc1F` (stereo not drawn) [Example 36, 2-(4-(difluoromethoxy)-2-ethyl-6-isopropylphenyl)-N-(3-fluoro-5-(2-hydroxypropan-2-yl)thiophene-2-sulfonimidoyl)acetamide] reads 200 to 1000 nM; that for `CC(C)(O)c1ncc(S(N)(=O)=NC(=O)Cc2c3c(cc4c2CC4)CCC3)s1` [Example 223, (S)- and (R)—N-(amino(2-(2-hydroxypropan-2-yl)thiazol-5-yl)(oxo)-λ^6-sulfaneylidene)-2-(2,4,5,6-tetrahydro-1H-cyclobuta[f]inden-3-yl)acetamide], 1000 to 5000 nM.
